In the NIST ThermoML archive (doi:10.1016/j.jct.2012.11.004):

Test: mn = molality of the nth substance listed, in mol/kg
Conditions: 101 kPa, Liquid; for mass density: Vibrating tube method; for speed of sound: Pulse-echo method

O=S(=O)([O-])C(F)(F)F.O=S(=O)([O-])C(F)(F)F.O=S(=O)([O-])C(F)(F)F.[Lu+3] [lutetium(III) trifluoromethanesulfonate] + CC(=O)N(C)C
Conditions	mass density, 283.15 K [kg/m3]	mass density, 293.15 K [kg/m3]	mass density, 298.15 K [kg/m3]	mass density, 303.15 K [kg/m3]	mass density, 313.15 K [kg/m3]	mass density, 323.15 K [kg/m3]	mass density, 333.15 K [kg/m3]	speed of sound, 298.15 K [m/s]
m1 = 0.02294	960.37	951.15	946.53	941.91	932.67	923.39	914.07	1455.7
m1 = 0.03057	963.84	954.61	950	945.38	936.11	926.83	917.5	1455.4
m1 = 0.0402	968.22	958.99	954.37	949.75	940.48	931.19	921.86	1455
m1 = 0.05161	973.43	964.19	959.57	954.95	945.68	936.38	927.05	1454.7
m1 = 0.06304	978.74	969.5	964.89	960.24	950.96	941.65	932.31	1454.3
m1 = 0.07962	986.46	977.21	972.58	967.95	958.66	949.34	939.99	1453.7
m1 = 0.1022	997.19	987.92	983.29	978.65	969.35	960.02	950.65	1452.2
m1 = 0.1222	1006.81	997.54	992.9	988.26	978.94	969.59	960.2	1451.5
m1 = 0.1412	1016.12	1006.84	1002.2	997.55	988.22	978.86	969.47	1450.5
m1 = 0.1647	1027.86	1018.56	1013.91	1009.26	999.92	990.55	981.13	1449
m1 = 0.1843	1037.79	1028.48	1023.83	1019.21	1009.81	1000.43	991.01	1448.3

O=S(=O)([O-])C(F)(F)F.O=S(=O)([O-])C(F)(F)F.O=S(=O)([O-])C(F)(F)F.[La+3] [lanthanum(III) trifluoromethanesulfonate] + CC(=O)N(C)C
Conditions	mass density, 283.15 K [kg/m3]	mass density, 293.15 K [kg/m3]	mass density, 298.15 K [kg/m3]	mass density, 303.15 K [kg/m3]	mass density, 313.15 K [kg/m3]	mass density, 323.15 K [kg/m3]	mass density, 333.15 K [kg/m3]	speed of sound, 298.15 K [m/s]
m1 = 0.02085	958.67	949.47	944.86	940.26	931.01	921.74	912.42	–
m1 = 0.02801	961.64	952.45	947.84	943.23	933.99	924.71	915.39	–
m1 = 0.03761	965.63	956.43	951.81	947.21	937.97	928.7	919.38	–
m1 = 0.04797	969.94	960.74	956.14	951.53	942.29	933.02	923.71	–
m1 = 0.05797	974.13	964.94	960.34	955.73	946.49	937.22	927.91	–
m1 = 0.07244	980.27	971.08	966.48	961.88	952.67	943.36	934	1455.9
m1 = 0.09378	989.43	980.24	975.64	971.03	961.79	952.5	943.16	–
m1 = 0.1127	997.64	988.45	983.85	979.24	969.99	960.7	951.36	–
m1 = 0.1302	1005.34	996.15	991.55	986.95	977.69	968.39	959.05	–
m1 = 0.1523	1015.25	1006.06	1001.46	996.85	987.59	978.29	968.93	–
m1 = 0.1712	1023.81	1014.62	1010.03	1005.42	996.16	986.84	977.5	–

O=S(=O)([O-])C(F)(F)F.O=S(=O)([O-])C(F)(F)F.O=S(=O)([O-])C(F)(F)F.[Gd+3] [gadolinium (III) trifluoromethanesulfonate] + CC(=O)N(C)C
Conditions	mass density, 283.15 K [kg/m3]	mass density, 293.15 K [kg/m3]	mass density, 298.15 K [kg/m3]	mass density, 303.15 K [kg/m3]	mass density, 313.15 K [kg/m3]	mass density, 323.15 K [kg/m3]	mass density, 333.15 K [kg/m3]	speed of sound, 298.15 K [m/s]
m1 = 0.02128	959.25	950.04	945.43	940.82	931.58	922.32	913.01	1456.1
m1 = 0.02915	962.65	953.45	948.84	944.24	935	925.73	916.44	1455.9
m1 = 0.03784	966.42	957.21	952.61	948.01	938.78	929.52	920.23	1455.7
m1 = 0.04864	971.16	961.95	957.35	952.76	943.52	934.27	924.97	1455.4
m1 = 0.05951	975.96	966.76	962.16	957.57	948.33	939.08	929.78	1455
m1 = 0.07557	983.07	973.86	969.27	964.67	955.44	946.19	936.89	1454.7
m1 = 0.0965	992.52	983.33	978.73	974.12	964.89	955.64	946.35	1454
m1 = 0.1165	1001.67	992.48	987.87	983.27	974.05	964.79	955.49	1453.6
m1 = 0.1341	1009.86	1000.66	996.06	991.46	982.24	972.98	963.68	1452.9
m1 = 0.1567	1020.47	1011.27	1006.67	1002.09	992.85	983.6	974.31	1452.5
m1 = 0.1757	1029.6	1020.41	1015.81	1011.21	1001.99	992.73	983.44	1451.8
